These results are taken from patent publication US20070224674A1, “Selective Enrichiment of Microorganisms for Desired Metabolic Properties” (COMMONWEALTH SCIENTIFIC AND INDUSTRIAL RESEARCH OR, priority 2003, published 2007).

Each structure is given as a SMILES string.

For data set [1] the following is noted: stated in words; cited from earlier work.
Another data set relates to Isolate 1B. The data set is described as follows: Dodecane degradation in liquid batch culture. In kind it is cell-based. Conditions: for Residual dodecane concentration: 0.75 g l^−1 added. As for the experimental part:
(§1) The ability of the pure isolates to grow on dodecane as the sole source of carbon in liquid culture was also evaluated and is shown in Table 5. The cultures were grown in 50 ml screw-capped plastic tubes that contained 10 ml of defined medium and 0.75 g l^−1 dodecane. To ensure each culture was inoculated with a consistent number of cells, 10 ml of medium was inoculated with 100 μl of a single colony that had been resuspended in 1 ml of DM. The cultures were incubated at 30° C. shaking at 190 rpm. Residual dodecane was extracted by the addition of 20 ml of hexane to a single 10 ml culture at each time point. The tube was shaken vigorously for one minute and after phase separation, the upper layer was kept for determination of the dodecane concentration. The dodecane concentrations were estimated using gas chromatography.

The subject of a further data set is Isolate 1C. As to the kind of experiment: Dodecane degradation in liquid batch culture. In kind it is cell-based. The note with it: for Residual dodecane concentration: 0.75 g l^−1 added. Here is the method: as §1
Another data set has as its system Isolate 1D. The data set is described as follows: Dodecane degradation in liquid batch culture. It is filed as cell-based. Conditions: for Residual dodecane concentration: 0.75 g l^−1 added. As for the experimental part:
as §1

The test system of data set [2] is 1,3-propanediol-degrading microbial population (activated sludge). The data set is described as follows: Enrichment of activated sludge on 1,3-propanediol, growth from BOD. In kind it is cell-based. Here is the method: Isolation of 1,3-propanediol-degrading microorganisms was used to test the feedback loop between feed flow rate and OUR. The feed medium was a defined medium designated 461S (Appendix I) which contained 1.0 g l^−1 1,3-propanediol and the initial flow rate was 43.5 ml h^−1. The operating temperature was 30° C. and pH 7.0. The medium was inoculated with ˜700 ml of activated sludge. The feed flow rate was increased by 20 ml h^−1 if the BOD remained constant for four vessel volumes. After an initial peak in the BOD, which was due to 1,3-propanediol being in excess, the BOD remained constant over a range of flow rates. […] This observation was expected because the inferred μmax of the population from the initial peak in BOD at the start of the experiment was ˜0.25 h^−1 (a doubling time of 2.8 hours). […] could be achieved with any microbial population that is established in the culture because there is a good probability that mutants which can grow at a higher rate will be selected at high feed flow rates.

The next data set has as its system P. putida. The data set is described as follows: Growth on glucose and benzyl alcohol in defined medium, batch culture. In kind it is cell-based, Pseudomonas putida F1. Here is the method: (§2) For these control experiments a steady state culture of an Escherichia coli BL21DE3 which was supplied by Novagen (Novagen Inc., Madison, Wis., USA) and was expected to grow on glucose only was used. The culture was established using 5 ml of an E. coli culture taken from a 100 ml shake flask culture which had been grown for 17 hours shaking at 200 rpm and 30° C. in defined medium with 1.0 g l^−1 glucose as the carbon source. Although the feed contained another substrate (benzyl alcohol), no growth on this substrate was expected because this microbial population was known to be unable to use this carbon source for growth. When steady state had been established, 10 mL of a 100 mL shake flask culture of Pseudomonas putida F1 was added. The P. putida F1 culture had been grown at 30° C. for 17 hours, with shaking at 200 rpm, in defined medium with 1.0 g l^−1 glucose as the carbon source. The P. putida F1 was supplied by the American Type Culture Collection (ATCC) and was expected to grow on benzyl alcohol and/or glucose. The OUR was expected to change as a result of the increased microbial activity after the addition of P. putida.
(§3) The success of this control experiment was dependent upon the ability of E. coli to grow on glucose in DM and grow in DM in the presence of benzyl alcohol (i.e. benzyl alcohol is not toxic to E. coli). Also of key importance was the inability of E. coli to grow on benzyl alcohol. […] Although P. putida is well known for its ability to grow on a wide range of aromatic substrates (Wackett, & Hershberger, 2001), growth on benzyl alcohol has not been reported. The optical density at inoculation was calculated (based upon the optical density on the inocula) as 0.021 (E. coli) and 0.026 (P. putida). The cultures were incubated shaking at 200 rpm and 30° C. The optical density was measured at 600 nm after incubation for 23.5 and 75 hours.

The test system of data set [3] is E. coli and P. putida continuous culture. As to the kind of experiment: Continuous culture population shift, residual substrate by gas chromatography. It is filed as cell-based, Escherichia coli BL21DE3, Pseudomonas putida F1. Conditions: when BOD stabilised after addition of P. putida; feed 1.0 g l^−1 benzyl alcohol and 0.5 g l^−1 glucose, 30 ml h^−1. Here is the method:
Based on the BOD it was clear that steady state had been attained (it is generally assumed that steady state has been established after turnover of at least three vessel volumes which, in this example would occur after 37.5 hours). After 125.7 hours (equivalent to 10 vessel volumes) of continuous operation, P. putida was added to the culture. Initially, there was no change in the BOD so to ensure P. putida was not being washed out of the vessel the feed flow rate was reduced from 60 ml h^−1 to 30 ml h^−1. […] This observation was confirmed by measuring the residual benzyl alcohol in the culture supernatant, which had started to decrease. As the P. putida population developed the BOD increased, peaking initially at nearly 1400 mg l^−1 before declining to 1050 mg l^−1 after which a second peak in the BOD was observed. […] After the second BOD peak, the BOD stabilised at 1040 mg l^−1 which was the expected BOD for a feed containing 0.5 g l^−1 glucose and 1.0 g l^−1 benzyl alcohol (see calculation below).
The feed consisting of DM containing 0.5 g l^−1 glucose and 1.0 g l^−1 benzyl alcohol was fed into a vessel at 30° C. and pH 7. The feed flow rate was initially 60 ml h^−1. […] At the same time that the BOD stabilised the measured residual benzyl alcohol concentration was zero. […]

For the next data set, the system named is E. coli. The data set is described as follows: Growth on glucose and benzyl alcohol in defined medium, batch culture. It is filed as cell-based, Escherichia coli BL21DE3. Here is the method: as §2, §3
Data set [4] relates to microorganisms from activated sludge. As to the kind of experiment: Enrichment of activated sludge on 1-methyl-2-pyrrolidinone, growth from BOD. Conditions: 30° C., pH 7.0. In kind it is cell-based. Here is the method: Fresh activated sludge sourced from a wastewater treatment facility was used as the source of microorganisms for enrichment of 1-methyl-2-pyrrolidinone-utilising microbes. […] The enrichment process was performed at 30° C. and pH 7.0 (the pH was maintained at 7.0 by the automatic addition of a potassium hydroxide or hydrochloric acid solution as the alkali and acid, respectively). The feed flow rate was 60 ml h^−1.
After the addition of the activated sludge to a vessel the BOD was high (greater than 500 mg l^−1). […] After 2 ml of 1-methyl-2-pyrrolidinone was added to the vessel (Arrow A; FIG. 8) a rapid rise in BOD was observed indicating exponential growth (FIG. 8). […] Growth is exponential between 1220 and 1460 minutes and μmax can therefore be calculated as 0.52 h^−1, which corresponds to a doubling time of 1.34 hours. The rapid decline in BOD (Arrow B, FIG. 8) was due to the oxygen consumption of the microbial population being greater than the amount of oxygen supplied to the culture.

The next data set relates to Isolate 2A. As to the kind of experiment: 1-methyl-2-pyrrolidinone degradation in liquid batch culture. It is filed as cell-based. The note with it: for Residual 1-methyl-2-pyrrolidinone concentration: 1.0 g l^−1 added. Here is the method:
(§4) The ability of the pure isolates to grow on 1-methyl-2-pyrrolidinone as the sole source of carbon in liquid culture was also evaluated (Table 3). The cultures were grown in 50 ml screw-capped plastic tubes that contained 10 ml of defined medium and 1.0 g l^−1 1-methyl-2-pyrrolidinone. To ensure each culture was inoculated with a consistent number of cells, 10 ml of medium was seeded with 100 μl of a single colony that had been resuspended in 1 ml of DM. The cultures were incubated at 30° C. shaking at 190 rpm. A single 10 ml culture was harvested by centrifugation at each time point and the supernatant kept for determination of the 1-methyl-2-pyrrolidinone concentration. The 1-methyl-2-pyrrolidinone concentrations were estimated using gas chromatography

A further data set deals with Isolate 2B. The data set is described as above. It is filed as cell-based. Conditions: for Residual 1-methyl-2-pyrrolidinone concentration: 1.0 g l^−1 added. Here is the method:
as §4

The mark [5] stands for this setting: batch culture, over a 168 hours period.
[6] abbreviates: benzyl alcohol 1.0 g l^−1 only carbon source, 23.5 hours.
Setting [7] is: benzyl alcohol 1.0 g l^−1 only carbon source, 75 hours.
Where [8] appears, read: benzyl alcohol 1.0 g l^−1 with glucose 0.1 g l^−1, 23.5 hours.
Where [9] appears, read: benzyl alcohol 1.0 g l^−1 with glucose 0.1 g l^−1, 75 hours.
Where [10] appears, read: glucose 0.1 g l^−1 only carbon source, 23.5 hours incubation, 30° C.
The mark [11] stands for this setting: glucose 0.1 g l^−1 only carbon source, 75 hours incubation, 30° C.

On to `CCCCCCCCCCCC` [dodecane], for which the Solubility in water entry in data set [1] was “practically insoluble in water”. The Residual dodecane concentration was 920 mg/L in the data set on Isolate 1B (24 h after inoculation); 160 mg/L with Isolate 1B (48 h after inoculation); 420 mg/L in the data set with Isolate 1B (72 h after inoculation); 270 mg/L with Isolate 1B (96 h after inoculation); 290 mg/L in the data set with Isolate 1B (168 h after inoculation); 630 mg/L in the data set on Isolate 1C (24 h after inoculation). The Residual dodecane concentration in the data set on Isolate 1C (48 h after inoculation) is 620 mg/L; with Isolate 1C (72 h after inoculation), 440 mg/L; with Isolate 1C (96 h after inoculation), 440 mg/L; in the data set with Isolate 1C (168 h after inoculation), 280 mg/L; with Isolate 1D (24 h after inoculation), 1080 mg/L; with Isolate 1D (48 h after inoculation) it was 920 mg/L. Moreover, the values for the Residual dodecane concentration in the data set on Isolate 1D (72 h after inoculation), in the data set with Isolate 1D (96 h after inoculation) and in the data set on Isolate 1D (168 h after inoculation) were 740 mg/L, 410 mg/L and 310 mg/L, respectively. Besides, the “Dodecane added to the culture that was used” value in the data set with Isolate 1B (setting [5]), with Isolate 1C (setting [5]) and in the data set with Isolate 1D (setting [5]) was 50 to 60% in each case.

For `OCCCO` [1,3-propanediol], in data set [2] (corresponds to inferred μmax), the Doubling time was determined as 2.8 h. Besides, the “Inferred μmax of the population” value in data set [2] (from the initial peak in BOD, 1.0 g l^−1 in feed, 30° C., pH 7.0) is roughly 0.25 h⁻¹.

As for `OCc1ccccc1` [Benzyl alcohol, benzyl alcohol], the “Optical density at 600 nm” value in the data set on P. putida (setting [6]) worked out at 0.021; in the data set with P. putida (setting [7]), 0.417; in the data set on P. putida (setting [8]) it was 0.042; in the data set with P. putida (setting [9]) it was 0.353; with E. coli (setting [6]), 0.027; in the data set with E. coli (setting [7]), 0.024. The “Optical density at 600 nm” value in the data set on E. coli (setting [8]) was found to be 0.102; in the data set on E. coli (setting [9]) it was 0.097. Moreover, in data set [3], the “Residual benzyl alcohol concentration” value is given as “zero”.

With `O=C[C@H](O)[C@@H](O)[C@H](O)[C@H](O)CO` [Glucose, glucose], the “Optical density at 600 nm” value is recorded as 0.170 in the data set with P. putida (setting [10]), 0.138 in the data set with P. putida (setting [11]), 0.116 in the data set with E. coli (setting [10]) and 0.102 in the data set with E. coli (setting [11]).

Regarding `CN1CCCC1=O` [1-methyl-2-pyrrolidinone], the “μmax of the population growing on the substrate” value in data set [4] (calculated from exponential BOD rise between 1220 and 1460 minutes) was 0.52 h⁻¹. This molecule also displayed a Doubling time in [4] (corresponds to μmax) of 1.34 h. The Solubility in water entry in data set [1] is recorded as “soluble in water”. Besides, the “Residual 1-methyl-2-pyrrolidinone concentration” value with Isolate 2A (24 h after inoculation) was “NDa (Not detected (limit of detection · 20 mg l^−1))”; with Isolate 2A (48 h after inoculation), “ND (Not detected (limit of detection · 20 mg l^−1))”; in the data set on Isolate 2A (72 h after inoculation), “ND (Not detected (limit of detection · 20 mg l^−1))”; in the data set on Isolate 2A (96 h after inoculation) it was “ND (Not detected (limit of detection · 20 mg l^−1))”; in the data set on Isolate 2A (168 h after inoculation), “ND (Not detected (limit of detection · 20 mg l^−1))”; in the data set on Isolate 2B (24 h after inoculation), “ND (Not detected (limit of detection · 20 mg l^−1))”. Also, the “Residual 1-methyl-2-pyrrolidinone concentration” value in the data set on Isolate 2B (48 h after inoculation), with Isolate 2B (72 h after inoculation), in the data set with Isolate 2B (96 h after inoculation) and in the data set with Isolate 2B (168 h after inoculation) was “ND (Not detected (limit of detection · 20 mg l^−1))” throughout. Moreover, the “Time to completely degrade 1.0 g l^−1 1-methyl-2-pyrrolidinone” value in the data set on Isolate 2A (batch culture) and in the data set with Isolate 2B (batch culture) was no more than 24 h throughout.
